Bounds are passed on as bounds.

In ChEMBL document CHEMBL1131633, “Design, synthesis, and biological activities of new thieno[3,2-d] pyrimidines as selective type 4 phosphodiesterase inhibitors” (J Med Chem, 1998) one finds IC50, EC50 and inhibition data, which are given here for 18 molecules.

Test [1] deals with Phosphodiesterase 3 (Cavia porcellus). As to the kind of experiment: Inhibitory activity against cGMP inhibited Phosphodiesterase 3, isolated from guinea pig ventricular tissue.
Test [2] has as its target Phosphodiesterase 4 (Cavia porcellus). Nature of the test: Inhibitory activity against phosphodiesterase 4 isolated from guinea pig ventricular tissue.
Test [3] has the same target. Nature of the test: Increased cAMP accumulation in isoprenaline-induced guinea pig eosinophils. A general note: Changes in cAMP serve as a functional read-out for many G protein-coupled receptors.
Test [4] addresses Phosphodiesterase 4 (Rattus norvegicus) (UniProt P14270+P14646+P14644+P54748). Nature of the test: Displacement of [3H]rolipram from Phosphodiesterase 4 in rat brain membranes at 10 uM. It counts as cell membranes.

Turning to `CCCc1nc2cccnc2n(Cc2ccccc2)c1=O`, the 50% inhibitory concentration (IC50) in test [1] was greater than 200 µM; in test [2] it was 1 µM.

Take `c1ccc(CNc2nc(N3CCCCC3)nc3ccsc23)cc1`: the results for the IC50 in test [1] and in test [2] were greater than 200 µM and 65 µM, respectively. Besides, in test [3], the EC50 was found to be 21 µM.

As for `c1ccc(CNc2nc(Cc3ccccc3)nc3ccsc23)cc1`, the IC50 in test [1] worked out at 5 µM; in test [2] it was 1.5 µM.

On to `CCc1nc(NCc2ccccc2)c2sccc2n1`, for which the half-maximal inhibitory concentration (IC50) in test [1] amounted to 30 µM; in test [2], 2.3 µM. Also, the inhibition in test [4] is 41%.

Take `CCCCc1nc(NC(=O)c2ccccc2)c2sccc2n1`: the values for the half-maximal inhibitory concentration (IC50) in test [1] and in test [2] were greater than 200 µM and 23 µM, respectively.

Consider `c1ccc(CNc2[nH]c(Cc3ccccc3)nc3ncnc2-3)cc1`, for which the IC50 in test [1] is greater than 200 µM; in test [2], 29 µM.

With `CCCCc1nc2ccccc2c(=O)n1Cc1ccccc1`, the IC50 in test [1] is greater than 200 µM; in test [2], 16 µM.

For the molecule `CCCCc1nc(NCc2ccc(-c3ccccc3)cc2)c2sccc2n1`, the IC50 in test [1] was 200 µM; in test [2], greater than 200 µM.

For `CCCCc1nc2ccsc2c(=O)n1Cc1ccccc1`, the IC50 in test [1] turned out to be 43 µM; in test [2], 5 µM.

As to `CCCCc1nc(NCc2ccccc2)c2nccnc2n1`, the IC50 in test [1] stood at 45 µM; in test [2], 6.7 µM.

Take `CCCCc1nc2ncccc2c(=O)n1Cc1ccccc1`: the values for the concentration for half-maximal inhibition (IC50) in test [1] and in test [2] were greater than 200 µM and 10 µM, respectively.

Turning to `CCCc1nc2ccccc2n(Cc2ccccc2)c1=O`, the IC50 was greater than 200 µM in test [1] and 0.9 µM in test [2].

For `CCCCc1nc(N(CCC)Cc2ccccc2)c2sccc2n1`, the IC50 in test [1] was greater than 200 µM; in test [2], 2.5 µM. Also, in test [4], the inhibition is 37%.

Take `CCCCc1nc(N(Cc2ccccc2)Cc2ccccc2)c2sccc2n1`: the IC50 in test [1] was greater than 200 µM; in test [2], 4 µM. In test [4], this molecule returned an inhibition of 37%.

On to `CCCCc1nc(NCc2ccc([N+](=O)[O-])cc2)c2sccc2n1`, for which the IC50 was determined as 8.5 µM in test [1] and 6.3 µM in test [2].

Consider `c1ccc(CNc2nc(-c3ccccc3)nc3ccsc23)cc1`, for which the IC50 is greater than 200 µM in test [1] and 3 µM in test [2]. The molecule further gave an inhibition in test [4] of 8%.

In the case of `CCCCc1nc(NCc2ccncc2)c2sccc2n1`, the IC50 in test [1] was 29 µM; in test [2], 0.6 µM.

Consider `c1ccc(CNc2ncnc3ccsc23)cc1`, for which the figures for the IC50 in test [1] and in test [2] were 68 µM and 14 µM, respectively. This molecule also gave an EC50 in test [3] of 18 µM.

Usually IC50 stands for the concentration at which inhibition is half-maximal. The term EC50 denotes the midpoint of the concentration-response curve. A low value points to greater potency. What is called inhibition is how much of the control response was suppressed.
